Read-outs that look alike come from different tables or passages of the source.
Test system: HCV genotype 1b replicon
Experiment: HCV replicon assay, cell ELISA with antibody to replicon-encoded NS3/4A (genotype 1b replicon)
Format: cell-based, hepatitis C virus
Conditions: Hepatitis C virus, 96 h
Procedure, shortened: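 An ELISA on lysed cells, using an antibody against NS3/4A protease, served as the proxy for replicon RNA. Cells had first been exposed for 96 h to serially diluted compound in G418-free conditions. Percent of DMSO control was fitted with a four-parameter function to give IC50.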

[1] = read-out: 1b IC50(nM), HCV genotype 1b replicon, 96 hours incubation, NS3/4A cell ELISA

| Compound | IC50 (read-out: Replicon 1b IC50 (nM), HCV genotype 1b replicon cells, 96 hours incubation, NS3/4A ELISA readout) | IC50 [1] |
| --- | --- | --- |
| CNC(=O)c1c(-c2ccc(F)cc2)oc2cc(N(C)S(C)(=O)=O)c(-c3cccc(-c4nc5cc(Cl)ccc5o4)c3)cc12 [Example 170] | 5.2 nM | – |
| CNC(=O)c1c(-c2ccc(F)cc2)oc2cc(N(C3COC3)S(C)(=O)=O)c(-c3ccc(OC)c(-c4nc5c(F)cccc5o4)c3)cc12 [Example 720] | – | 41.6 nM |
| CNC(=O)c1c(-c2ccc(F)cc2)oc2cc(N(CC(C)(C)F)S(C)(=O)=O)c(-c3ccc(OC)c(-c4nc5c(F)cccc5o4)c3)cc12 [Example 789] | – | 18.7 nM |

Reference: patent US20120328569A1, “INHIBITORS OF HEPATITIS C VIRUS NS5B POLYMERASE” (priority 2010, published 2012)
